The test has as its system Trypsin. Put plainly: anti-trypsin effect (normalised trypsin activity). The format is biochemical. The following applies: control (trypsin only) = 1.0.

Regarding `CC(C)(C)C(=O)C(Oc1ccc(Cl)cc1)n1ccnc1` (stereo not drawn) [Climbazole], the Normalised activity reads like this: (Climbazole 0.00391% alone) 1.15; (Climbazole 0.00781% alone) 1.31; (Climbazole 0.01563% alone) 1.41; (Climbazole 0.03125% alone) 1.30; (Climbazole 0.0625% alone) 0.908; (Climbazole 0.125% alone) 1.06.
Molecule Zinc gluconate registered a Normalised activity (Zinc gluconate 0.00156% alone) of 1.03, a Normalised activity (Zinc gluconate 0.003125% alone) of 0.957 and a Normalised activity (Zinc gluconate 0.00625% alone) of 0.8404.

These data come from patent publication US8759385B2, “Composition comprising azole fungicide and water soluble metal salt” (Conopco Inc., priority 2009, dated 2014).
